Read-outs that look alike come from different tables or passages of the source.

The target of one assay is T1, FAK (Homo sapiens, UniProt Q05397).
T1 construct: homozygous knock-in of a HiBiT tag (Promega Corporation, Madison, WI) to the C-terminus of the FAK gene in its natural genomic locus; endogenous in cells; host or cells: JHH-4-FAK-HiBiT clone d01 (CRISPR-Cas9 knock-in at the endogenous locus)
As to the kind of experiment: FAK-HiBiT Degradation Assay. The format is cell-based. As to conditions: for FAK HiBiT Ymin: lower limit of the four parameter fit (value A), Ymax derived using DMSO control, JHH-4-FAK-HiBiT cells, two hours; for DC50: read-out: FAK HiBiT EC50. The gist of the method: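 JHH-4 cells with homozygous CRISPR knock-in of C-terminal HiBiT on endogenous FAK, treated 2 h at 37 °C with compounds in 10-point 3-fold series from 1 μM. HiBiT lytic luminescence read; EC50 from four-parameter logistic fit, Ymax set by DMSO control, Ymin as lower fit limit.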

A further assay deals with CAL-51 cells. As to the kind of experiment: CAL-51 Cell Proliferation Assay. The format is cell-based. As to conditions: for EC50: 120 hours incubation, 10-point dose response, 4-fold dilutions starting at 10 μM, Cell-Titer-Glo, read-out: CAL-51 Prolif EC50; for CAL-51 Prolif Ymin: minimal percent of DMSO control observed in the concentrations tested (Ymin-obs), 120 hours. From the text:
CAL-51 cells were obtained from Bristol Myers Squibb internal cell banks (originally sourced from DSMZ-German Collection of Microorganisms and Cell Cultures GmbH, Germany) and cultured in RPMI complete media (RPMI-1640, 10% Fetal Bovine serum, 1× Antibiotic-Antimycotic, and 1× Non-Essential Amino Acids). Compounds were dispensed into 384-well plates using an acoustic dispenser (Beckman Coulter Life Sciences, Carlsbad, CA) in duplicate with 14 compounds on each plate. For each compound, a 10-point dose response was printed at 4-fold dilutions starting at 10 μM. The DMSO concentration was kept constant for a final assay concentration of 0.1% per well assuming 50 uL final media volume. Compound plates were sealed and frozen at −20° C. until use.
For each assay batch, compound plates were thawed and allowed to reach room temperature, and cells were seeded at 350 cells per well in 50 μl complete RPMI media. After 120 hours of incubation at 37° C. and 5% CO2, cells were lysed by addition of 25 μL of Cell-Titer-Glo Reagent (Promega Corporation, Madison, WI), as per manufacturer's instructions, protected from light, shaken for 20 minutes, and total luminescence read by a CLARIOstar Plus plate reader (BMG LabTech, Cary, NC). Total luminescence signal is linearly correlated with cell number remaining in the well.
Luminescence data was processed per plate by subtracting reagent-only “blank” well luminescence from all measured values and calculating a percent of DMSO control value for each treatment well. Then, to determine the half-maximal effective concentration (EC50) values for cell growth inhibition, a four parameter logistic model was fit to the data for each DMSO-normalized compound: Sigmoidal Dose-Response Model: (FIT=(A+((B−A)/1+((C/x)^D)))) where C is the inflection point (EC50), D is the Hill slope, and A and B are the low and high limits of the fit respectively. The lower limit of the fit (value A) is referred to as Ymin-calculated. The minimal percent of DMSO control that is observed in the concentrations tested for each compound is labeled as “Ymin-obs”, and was recorded and reported in the tables. Sigmoidal fit curves were processed and evaluated using Dotmatics Atlas (Insightful Science, LLC, Boston, MA).

The mark [1] stands for this setting: JHH-4-FAK-HiBiT clone d01 cells, two hours incubation, 10-point dose response, 3-fold dilution starting at 1 μM, Nano-Glo HiBiT luminescence.

T1 sequence (Q05397 whole entry): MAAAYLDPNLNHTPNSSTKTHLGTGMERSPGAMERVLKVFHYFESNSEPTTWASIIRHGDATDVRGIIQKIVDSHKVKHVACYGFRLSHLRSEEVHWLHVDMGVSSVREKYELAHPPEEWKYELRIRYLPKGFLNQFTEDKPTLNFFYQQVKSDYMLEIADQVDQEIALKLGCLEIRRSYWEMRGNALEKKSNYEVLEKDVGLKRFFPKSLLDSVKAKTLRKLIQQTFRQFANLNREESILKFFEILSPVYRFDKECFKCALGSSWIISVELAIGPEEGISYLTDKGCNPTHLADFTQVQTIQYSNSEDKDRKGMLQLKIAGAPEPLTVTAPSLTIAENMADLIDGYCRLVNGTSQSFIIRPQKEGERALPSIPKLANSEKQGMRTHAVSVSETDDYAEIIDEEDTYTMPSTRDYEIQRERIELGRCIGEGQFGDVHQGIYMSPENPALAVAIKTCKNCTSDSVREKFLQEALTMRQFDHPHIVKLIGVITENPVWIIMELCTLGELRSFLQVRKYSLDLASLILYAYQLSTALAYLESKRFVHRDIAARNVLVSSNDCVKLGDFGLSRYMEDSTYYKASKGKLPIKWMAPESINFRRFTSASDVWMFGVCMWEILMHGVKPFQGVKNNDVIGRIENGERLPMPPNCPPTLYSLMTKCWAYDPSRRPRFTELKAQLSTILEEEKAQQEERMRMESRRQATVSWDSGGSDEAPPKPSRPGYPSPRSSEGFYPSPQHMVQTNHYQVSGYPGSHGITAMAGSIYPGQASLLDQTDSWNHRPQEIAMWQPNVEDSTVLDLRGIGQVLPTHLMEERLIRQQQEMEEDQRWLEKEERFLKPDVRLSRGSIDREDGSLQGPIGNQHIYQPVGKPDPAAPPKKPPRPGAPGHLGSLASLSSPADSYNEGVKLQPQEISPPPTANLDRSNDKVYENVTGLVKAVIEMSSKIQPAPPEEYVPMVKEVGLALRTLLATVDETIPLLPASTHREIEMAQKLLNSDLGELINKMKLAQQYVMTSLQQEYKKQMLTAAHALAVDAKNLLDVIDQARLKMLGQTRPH

By EC50 is commonly meant the concentration giving half of the maximal effect. On FAK (setting [1]), `CN(C)c1cc(-c2ncc(C#N)cc2Cl)c2c(n1)N(Cc1ccc3c(c1)CN(C1CCC(=O)NC1=O)C3=O)CC2` (centres unmarked) [Example 14, 5-chloro-6-(6-(dimethylamino)-1-((2-(2,6-dioxopiperidin-3-yl)-1-oxoisoindolin-5-yl)methyl)-2,3-dihydro-1H-pyrrolo[2,3-b]pyridin-4-yl)nicotinonitrile] returned an EC50 of 14.6 nM. Further, the “FAK HiBiT Ymin” value on FAK is recorded as 7.20. In addition, in the assay on CAL-51 cells, the EC50 is 5.06 nM and the “CAL-51 Prolif Ymin” value is on record as 23.56.

Turning to `O=C1CCC(N2Cc3cc(Cn4ccc5c(-c6ncc(C(F)(F)F)cc6Cl)cc(N6CC(F)C6)nc54)ccc3C2=O)C(=O)N1` (centres unmarked) [Example 15, 3-(5-((4-(3-chloro-5-(trifluoromethyl)pyridin-2-yl)-6-(3-fluoroazetidin-1-yl)-1H-pyrrolo[2,3-b]pyridin-1-yl)methyl)-1-oxoisoindolin-2-yl)piperidine-2,6-dione], the DC50 at FAK (setting [1]) was 0.95 nM. Besides, the “FAK HiBiT Ymin” value at FAK was found to be 7.50. Moreover, in the assay on CAL-51 cells (Homo sapiens), the EC50 is 0.89 nM. In the assay on CAL-51 cells, the “CAL-51 Prolif Ymin” value amounted to 29.00.

As to `CCc1cc2c(-c3ncc(C(F)(F)F)cc3Cl)cc(N3CC(F)C3)nc2n1Cc1ccc2c(c1)CN(C1CCC(=O)NC1=O)C2=O` (centres unmarked) [Example 16, 3-(5-((4-(3-chloro-5-(trifluoromethyl)pyridin-2-yl)-2-ethyl-6-(3-fluoroazetidin-1-yl)-1H-pyrrolo[2,3-b]pyridin-1-yl)methyl)-1-oxoisoindolin-2-yl)piperidine-2,6-dione], on FAK (setting [1]), the DC50 was not below 1000 nM. For the same compound, the “FAK HiBiT Ymin” value on FAK stood at 96.37. Further, the concentration giving a half-maximal response (EC50) with CAL-51 cells (Homo sapiens) amounted to 298 nM. For the same compound, the “CAL-51 Prolif Ymin” value in the assay with CAL-51 cells is 81.53.

For `O=C1CCC(N2Cc3cc(Cn4ccc5c(-c6ncc(F)cc6Cl)cc(N6CC(F)C6)nc54)ccc3C2=O)C(=O)N1` (centres unmarked) [Example 17, 3-(5-((4-(3-chloro-5-fluoropyridin-2-yl)-6-(3-fluoroazetidin-1-yl)-1H-pyrrolo[2,3-b]pyridin-1-yl)methyl)-1-oxoisoindolin-2-yl)piperidine-2,6-dione], the DC50 on FAK (setting [1]) stood at 3.36 nM. Also, on FAK, the “FAK HiBiT Ymin” value is 7.42. Also, the concentration for a half-maximal effect (EC50) with CAL-51 cells (Homo sapiens) worked out at 3.46 nM. Moreover, the “CAL-51 Prolif Ymin” value in the assay with CAL-51 cells is 28.46.

As for `O=C1CCC(N2Cc3cc(Cn4cnc5c(-c6ccc(C(F)(F)F)cc6Cl)cc(N6CC(F)C6)nc54)ccc3C2=O)C(=O)N1` (centres unmarked) [Example 19, 3-(5-((7-(2-chloro-4-(trifluoromethyl)phenyl)-5-(3-fluoroazetidin-1-yl)-3H-imidazo[4,5-b]pyridin-3-yl)methyl)-1-oxoisoindolin-2-yl)piperidine-2,6-dione], at FAK (setting [1]), the DC50 is 0.86 nM. In addition, the “FAK HiBiT Ymin” value at FAK is 8.55. The EC50 with CAL-51 cells (Homo sapiens) is 0.38 nM. Moreover, in the assay on CAL-51 cells, the “CAL-51 Prolif Ymin” value came to 23.48.

`Cc1nc2c(-c3ccc(C(F)(F)F)cc3Cl)cc(N3CC(F)C3)nc2n1Cc1ccc2c(c1)CN(C1CCC(=O)NC1=O)C2=O` (centres unmarked) [Example 20, 3-(5-((7-(2-chloro-4-(trifluoromethyl)phenyl)-5-(3-fluoroazetidin-1-yl)-2-methyl-3H-imidazo[4,5-b]pyridin-3-yl)methyl)-1-oxoisoindolin-2-yl)piperidine-2,6-dione]: at FAK (setting [1]), the DC50 is 0.89 nM. Besides, the “FAK HiBiT Ymin” value at FAK was determined as 7.90. The EC50 in the assay with CAL-51 cells (Homo sapiens) came to 0.37 nM. Further, in the assay with CAL-51 cells, the “CAL-51 Prolif Ymin” value is given as 24.38.

As for `Cc1nc2c(-c3ncc(C(F)(F)F)cc3Cl)cc(N3CC(F)C3)nc2n1Cc1ccc2c(c1)CN(C1CCC(=O)NC1=O)C2=O` (centres unmarked) [Example 21, 3-(5-((7-(3-chloro-5-(trifluoromethyl)pyridin-2-yl)-5-(3-fluoroazetidin-1-yl)-2-methyl-3H-imidazo[4,5-b]pyridin-3-yl)methyl)-1-oxoisoindolin-2-yl)piperidine-2,6-dione], the DC50 at FAK (setting [1]) was determined as 1.54 nM. For the same compound, the “FAK HiBiT Ymin” value on FAK was 9.84. Moreover, the EC50 in the assay with CAL-51 cells (Homo sapiens) amounted to 0.91 nM. Besides, in the assay with CAL-51 cells, the “CAL-51 Prolif Ymin” value stood at 23.08.

On to `O=C1CCC(N2Cc3cc(Cn4cnc5c(-c6ccc(F)cc6F)cc(N6CC(F)C6)nc54)ccc3C2=O)C(=O)N1` (centres unmarked) [Example 22, 3-(5-((7-(2,4-difluorophenyl)-5-(3-fluoroazetidin-1-yl)-3H-imidazo[4,5-b]pyridin-3-yl)methyl)-1-oxoisoindolin-2-yl)piperidine-2,6-dione], for which the DC50 on FAK (setting [1]) is 0.68 nM. Besides, the “FAK HiBiT Ymin” value at FAK turned out to be 10.53. Also, the EC50 in the assay with CAL-51 cells (Homo sapiens) was 0.39 nM. The “CAL-51 Prolif Ymin” value with CAL-51 cells was 22.20.

Regarding `Cc1nc2c(-c3ccc(F)cc3F)cc(N3CC(F)C3)nc2n1Cc1ccc2c(c1)CN(C1CCC(=O)NC1=O)C2=O` (centres unmarked) [Example 23, 3-(5-((7-(2,4-difluorophenyl)-5-(3-fluoroazetidin-1-yl)-2-methyl-3H-imidazo[4,5-b]pyridin-3-yl)methyl)-1-oxoisoindolin-2-yl)piperidine-2,6-dione], at FAK (setting [1]), the DC50 turned out to be 1.03 nM. In addition, the “FAK HiBiT Ymin” value on FAK was determined as 7.69. In addition, the EC50 with CAL-51 cells (Homo sapiens) was 0.62 nM. Also, in the assay on CAL-51 cells, the “CAL-51 Prolif Ymin” value amounted to 20.44.

Turning to `Cc1nc2c(-c3ncc(F)cc3Cl)cc(N3CC(F)C3)nc2n1Cc1ccc2c(c1)CN(C1CCC(=O)NC1=O)C2=O` (centres unmarked) [Example 24, 3-(5-((7-(3-chloro-5-fluoropyridin-2-yl)-5-(3-fluoroazetidin-1-yl)-2-methyl-3H-imidazo[4,5-b]pyridin-3-yl)methyl)-1-oxoisoindolin-2-yl)piperidine-2,6-dione], the DC50 on FAK (setting [1]) was 29.6 nM. Further, at FAK, the “FAK HiBiT Ymin” value amounted to 5.76. For the same compound, in the assay with CAL-51 cells (Homo sapiens), the EC50 amounted to 4.05 nM. The “CAL-51 Prolif Ymin” value in the assay on CAL-51 cells is given as 23.72.

With `O=C1CCC(N2Cc3cc(Cn4cnc5c(-c6ncc(F)cc6Cl)cc(N6CC(F)C6)nc54)ccc3C2=O)C(=O)N1` (centres unmarked) [Example 25, 3-(5-((7-(3-chloro-5-fluoropyridin-2-yl)-5-(3-fluoroazetidin-1-yl)-3H-imidazo[4,5-b]pyridin-3-yl)methyl)-1-oxoisoindolin-2-yl)piperidine-2,6-dione], the DC50 on FAK (setting [1]) was found to be 21.1 nM. Also, the “FAK HiBiT Ymin” value on FAK turned out to be 5.97. For the same compound, the concentration giving a half-maximal response (EC50) in the assay with CAL-51 cells (Homo sapiens) stood at 146 nM. The “CAL-51 Prolif Ymin” value in the assay on CAL-51 cells stood at 46.08.

In the case of `O=C1CCC(N2Cc3cc(Cn4ncc5c(-c6ncc(C(F)(F)F)cc6Cl)cc(N6CC(F)C6)cc54)ccc3C2=O)C(=O)N1` (centres unmarked) [Example 26, 3-(5-((4-(3-chloro-5-(trifluoromethyl)pyridin-2-yl)-6-(3-fluoroazetidin-1-yl)-1H-indazol-1-yl)methyl)-1-oxoisoindolin-2-yl)piperidine-2,6-dione], the DC50 at FAK (setting [1]) turned out to be 8.5 nM. On FAK, the “FAK HiBiT Ymin” value is reported as 11.53. Besides, in the assay with CAL-51 cells (Homo sapiens), the EC50 was found to be 2.32 nM. Further, the “CAL-51 Prolif Ymin” value in the assay on CAL-51 cells was 24.69.

In the case of `O=C1CC[C@H](N2Cc3cc(Cn4ccc5c(-c6ncc(C(F)(F)F)cc6Cl)nc(N6CC(F)C6)nc54)ccc3C2=O)C(=O)N1` [Example 28, (S)-3-(5-((4-(3-chloro-5-(trifluoromethyl)pyridin-2-yl)-2-(3-fluoroazetidin-1-yl)-7H-pyrrolo[2,3-d]pyrimidin-7-yl)methyl)-1-oxoisoindolin-2-yl)piperidine-2,6-dione], the DC50 on FAK (setting [1]) came out at 0.38 nM. Also, on FAK, the “FAK HiBiT Ymin” value amounted to 7.63. In the assay on CAL-51 cells (Homo sapiens), the EC50 worked out at 0.45 nM. The “CAL-51 Prolif Ymin” value with CAL-51 cells is given as 25.69.

As to `Cc1cc(C(F)(F)F)cnc1-c1cc(N2CC(F)C2)nc2c1cnn2Cc1ccc2c(c1)CN(C1CCC(=O)NC1=O)C2=O` (centres unmarked) [Example 29, 3-(5-{[6-(3-fluoroazetidin-1-yl)-4-[3-methyl-5-(trifluoromethyl)pyridin-2-yl]-1H-pyrazolo[3,4-b]pyridin-1-yl]methyl}-1-oxo-2,3-dihydro-1H-isoindol-2-yl)piperidine-2,6-dione], the DC50 at FAK (setting [1]) stood at 0.71 nM. Besides, the “FAK HiBiT Ymin” value at FAK is recorded as 8.83. Moreover, the EC50 in the assay on CAL-51 cells (Homo sapiens) was determined as 1.23 nM. Also, the “CAL-51 Prolif Ymin” value in the assay on CAL-51 cells is reported as 30.94.

These data come from patent US20260078119A1, “DEGRADER COMPOUNDS AND USES THEREOF” (Bristol-Myers Squibb Company, priority 2024, published 2026).
